Legend:
Test in all cases: relative viability (nuclei count vs DMSO), 5 days (fraction); higher = more cells survive
[1] = system: EMC-BAC-2
Method in brief: (§1)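 Lung cancer cell lines, seeded in 1536-well plates, were treated the following day by pin tool with a single drug or with five library-drug doses (not always all listed) in √10 steps on top of a fixed anchor-drug dose. Cells were fixed and nuclei stained in one step after 5 days, and nuclei were counted. Relative viability is the nuclei count for treated wells divided by that for vehicle wells, reported as medians of duplicate plates.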

[2] = system: CAL-12T
Method in brief: as §1

[3] = system: HARA
Method in brief: as §1

[4] = system: NCI-H2009
Method in brief: as §1

[5] = system: HCC-366
Method in brief: as §1

[6] = system: NCI-H1437
Method in brief: as §1

[7] = system: NCI-H460
Method in brief: as §1

[8] = system: HOP-62
Method in brief: as §1

[9] = system: NCI-H23
Method in brief: as §1

[10] = system: NCI-H2228
Method in brief: as §1

[11] = system: LCLC-103H
Method in brief: as §1

[12] = system: NCI-H1755
Method in brief: as §1

[13] = system: NCI-H1395
Method in brief: as §1

[14] = system: NCI-H1792
Method in brief: as §1

[15] = system: COR-L 105
Method in brief: as §1

[16] = system: NCI-H727
Method in brief: as §1

[17] = system: SK-LU-1
Method in brief: as §1

[18] = system: HCC-827
Method in brief: as §1

[19] = system: A-427
Method in brief: as §1

[20] = system: NCI-H1915
Method in brief: as §1

[21] = system: SW 1573
Method in brief: as §1

SMILES: CCN(CC)CCCCNc1ncc2cc(-c3cc(OC)cc(OC)c3)c(NC(=O)NC(C)(C)C)nc2n1 + C[C@]1(O)C[C@@H](c2nc(-c3ccc4ccc(-c5ccccc5)nc4c3)c3c(N)nccn32)C1 [Linsitinib] (partner 1 µM)
- relative viability ([1]; first compound 0.01 µM): 0.873
- relative viability ([1]; first compound 0.03162 µM): 0.836
- relative viability ([1]; first compound 0.1 µM): 0.821
- relative viability ([1]; first compound 0.3162 µM): 0.838
- relative viability ([1]; first compound 1 µM): 0.771
- relative viability ([2]; first compound 0.01 µM): 0.873
- relative viability ([2]; first compound 0.03162 µM): 0.954
- relative viability ([2]; first compound 0.1 µM): 0.729
- relative viability ([2]; first compound 0.3162 µM): 0.906
- relative viability ([2]; first compound 1 µM): 0.844
- relative viability ([3]; first compound 0.01 µM): 1.04
- relative viability ([3]; first compound 0.03162 µM): 1
- relative viability ([3]; first compound 0.1 µM): 0.989
- relative viability ([3]; first compound 0.3162 µM): 0.933
- relative viability ([3]; first compound 1 µM): 0.672
- relative viability ([4]; first compound 0.01 µM): 1.29
- relative viability ([4]; first compound 0.03162 µM): 1.19
- relative viability ([4]; first compound 0.1 µM): 1.23
- relative viability ([4]; first compound 0.3162 µM): 1.26
- relative viability ([4]; first compound 1 µM): 1.21
- relative viability ([5]; first compound 0.01 µM): 0.622
- relative viability ([5]; first compound 0.03162 µM): 0.706
- relative viability ([5]; first compound 0.1 µM): 0.66
- relative viability ([5]; first compound 0.3162 µM): 0.887
- relative viability ([5]; first compound 1 µM): 0.505
- relative viability ([6]; first compound 0.01 µM): 1.27
- relative viability ([6]; first compound 0.03162 µM): 1.05
- relative viability ([6]; first compound 0.1 µM): 1.13
- relative viability ([6]; first compound 0.3162 µM): 1.22
- relative viability ([6]; first compound 1 µM): 0.817
- relative viability ([7]; first compound 0.01 µM): 1.05
- relative viability ([7]; first compound 0.03162 µM): 0.985
- relative viability ([7]; first compound 0.1 µM): 0.868
- relative viability ([7]; first compound 0.3162 µM): 1.58
- relative viability ([7]; first compound 1 µM): 0.293
- relative viability ([8]; first compound 0.01 µM): 1.04
- relative viability ([8]; first compound 0.03162 µM): 1.02
- relative viability ([8]; first compound 0.1 µM): 0.935
- relative viability ([8]; first compound 0.3162 µM): 1.14
- relative viability ([8]; first compound 1 µM): 0.873
- relative viability ([9]; first compound 0.01 µM): 0.669
- relative viability ([9]; first compound 0.03162 µM): 0.63
- relative viability ([9]; first compound 0.1 µM): 0.644
- relative viability ([9]; first compound 0.3162 µM): 0.601
- relative viability ([9]; first compound 1 µM): 0.516
- relative viability ([10]; first compound 0.01 µM): 0.741
- relative viability ([10]; first compound 0.03162 µM): 0.834
- relative viability ([10]; first compound 0.1 µM): 0.872
- relative viability ([10]; first compound 0.3162 µM): 1.07
- relative viability ([10]; first compound 1 µM): 0.635
- relative viability ([11]; first compound 0.01 µM): 1.17
- relative viability ([11]; first compound 0.03162 µM): 1.11
- relative viability ([11]; first compound 0.1 µM): 1.2
- relative viability ([11]; first compound 0.3162 µM): 1.09
- relative viability ([11]; first compound 1 µM): 1.15
- relative viability ([12]; first compound 0.01 µM): 1.08
- relative viability ([12]; first compound 0.03162 µM): 0.979
- relative viability ([12]; first compound 0.1 µM): 0.995
- relative viability ([12]; first compound 0.3162 µM): 1.08
- relative viability ([12]; first compound 1 µM): 0.925
- relative viability ([13]; first compound 0.03162 µM): 1.02
- relative viability ([13]; first compound 0.1 µM): 0.935
- relative viability ([13]; first compound 0.3162 µM): 1.04
- relative viability ([13]; first compound 1 µM): 0.671
- relative viability ([14]; first compound 0.01 µM): 0.572
- relative viability ([14]; first compound 0.03162 µM): 0.501
- relative viability ([14]; first compound 0.1 µM): 0.475
- relative viability ([14]; first compound 0.3162 µM): 0.696
- relative viability ([14]; first compound 1 µM): 0.295
- relative viability ([15]; first compound 0.01 µM): 1.1
- relative viability ([15]; first compound 0.03162 µM): 0.794
- relative viability ([15]; first compound 0.1 µM): 1.02
- relative viability ([15]; first compound 0.3162 µM): 0.963
- relative viability ([15]; first compound 1 µM): 0.868
- relative viability ([16]; first compound 0.01 µM): 0.297
- relative viability ([16]; first compound 0.03162 µM): 0.251
- relative viability ([16]; first compound 0.1 µM): 0.293
- relative viability ([16]; first compound 0.3162 µM): 0.363
- relative viability ([16]; first compound 1 µM): 0.301
- relative viability ([17]; first compound 0.01 µM): 1.24
- relative viability ([17]; first compound 0.03162 µM): 1.1
- relative viability ([17]; first compound 0.1 µM): 1.4
- relative viability ([17]; first compound 0.3162 µM): 1.49
- relative viability ([17]; first compound 1 µM): 0.988
- relative viability ([18]; first compound 0.01 µM): 0.933
- relative viability ([18]; first compound 0.03162 µM): 0.987
- relative viability ([18]; first compound 0.1 µM): 1.01
- relative viability ([18]; first compound 0.3162 µM): 0.982
- relative viability ([18]; first compound 1 µM): 0.961
- relative viability ([19]; first compound 0.01 µM): 1.12
- relative viability ([19]; first compound 0.03162 µM): 1.17
- relative viability ([19]; first compound 0.1 µM): 1.21
- relative viability ([19]; first compound 0.3162 µM): 1.18
- relative viability ([19]; first compound 1 µM): 0.993
- relative viability ([20]; first compound 0.01 µM): 1.11
- relative viability ([20]; first compound 0.03162 µM): 1.12
- relative viability ([20]; first compound 0.1 µM): 1.12
- relative viability ([20]; first compound 0.3162 µM): 1.1
- relative viability ([20]; first compound 1 µM): 1.15
- relative viability ([21]; first compound 0.01 µM): 0.811
- relative viability ([21]; first compound 0.03162 µM): 0.785
- relative viability ([21]; first compound 0.1 µM): 0.892
- relative viability ([21]; first compound 0.3162 µM): 0.734
- relative viability ([21]; first compound 1 µM): 0.789
